{"source": "paper PMC11094875", "about": "“Cholecystokinin B receptor agonists alleviates anterograde amnesia in cholecystokinin-deficient and aged Alzheimer's disease mice” (Alzheimer's Research & Therapy, 2024)", "origin": "cited, not measured here", "key": {"[1]": {"details": "rat plasm ref 31"}, "[2]": {"details": "human plasm ref 31"}, "[3]": {"details": "as stated in the MWM method for the dosing schedule; no reference given"}}, "note": "Like-named read-outs stand apart in the source and are kept apart here.", "data": [{"compound": "CSCC[C@H](NC(=O)[C@@H](N)Cc1c[nH]c2ccccc12)C(=O)N[C@@H](CC(=O)O)C(=O)N[C@@H](Cc1ccccc1)C(N)=O", "note": "[CCK-4, CCK tetrapeptide]", "values": [{"measurement": "half-life", "setting": "[1]", "value": "< 1", "unit": "min"}, {"measurement": "half-life", "setting": "[2]", "value": 13, "unit": "min"}, {"measurement": "half-life", "setting": "[3]", "value": "less than 5 min"}]}]}
